# PubChem BioAssay (NCI)
# Several values for one entry are separate records, joined by “and”; a condition that tells them apart may be missing. Equal values may be shown once.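 Cells were grown in 96-well plates and exposed to each compound for 48 hours at five concentrations; endpoints were interpolated linearly between bracketing concentrations, or set to the highest concentration if not reached. GI50 is the concentration that inhibits growth by half. TGI denotes the concentration required for complete inhibition of growth.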
# Tests used:
# Experiment in all cases: growth of human tumour cells (NCI), 48 h
# SNB-78 CNS = tested on: SNB-78 CNS
# LXFL 529 NSCLC = tested on: LXFL 529 NSCLC
# DMS 114 small cell lung = tested on: DMS 114 small cell lung
# M19-MEL melanoma = tested on: M19-MEL melanoma
# KM20L2 colon = tested on: KM20L2 colon
# XF 498 CNS = tested on: XF 498 CNS
# HOP-18 NSCLC = tested on: HOP-18 NSCLC
# MDA-N = tested on: MDA-N
# RXF-631 renal = tested on: RXF-631 renal
SMILES,TGI (SNB-78 CNS),TGI (LXFL 529 NSCLC),TGI (DMS 114 small cell lung),TGI (M19-MEL melanoma),TGI (KM20L2 colon),TGI (XF 498 CNS),TGI (HOP-18 NSCLC),TGI (RXF-631 renal),further results
CC(=O)n1nnc2ccc([N+](=O)[O-])cc21,> 100 µM,> 100 µM,> 100 µM,> 100 µM,> 100 µM,> 100 µM,> 100 µM,–,–
O=C1CC(C(=O)O)Cc2c(Br)ccc(O)c21 (stereo unspecified),–,–,–,–,–,–,–,–,TGI (MDA-N): > 100 µM
O=C1c2cccc([N+](=O)[O-])c2C(=O)c2nccnc21,7.38 µM,–,2.3 µM,0.276 µM,6.16 µM,–,3.06 µM,–,–
CN(C)CCCOc1ccc(/C=C2/CCC/C(=C/c3ccc(OCCCN(C)C)cc3)C2=O)cc1,9.06 µM,7.12 µM,3.11 µM,–,0.537 µM,–,12.3 µM,–,–
COC(=O)CC1C2(C)C3=C(C)C(c4ccoc4)CC3OC2C2OC(=O)C3(C)C=CC(=O)C1(C)C23 (stereo unspecified),–,–,–,–,–,–,–,–,TGI (MDA-N): 2.93 µM
Cc1cc(Cl)ccc1NC(=O)CC1SC(=NC(=O)c2ccccc2Cl)NC1=O (stereo unspecified),50.9 µM,32.3 µM,41.8 µM,35.8 µM,> 100 µM,32.7 µM,–,–,–
CC(C)COC(=O)c1ccc(N=Cc2ccc(C=Nc3ccc(C(=O)OCC(C)C)cc3)cc2)cc1,> 100 µM,> 100 µM,–,> 100 µM,> 100 µM,> 100 µM,–,> 100 µM,–
N#CC(C#N)=Cc1ccc(C(O)P(=O)(O)O)cc1 (stereo unspecified),> 100 µM,> 100 µM,> 100 µM,> 100 µM,> 100 µM,> 100 µM,> 100 µM,> 100 µM,–
Cc1ccc(NC(=O)CCc2nnc3s/c(=C\c4cccc([N+](=O)[O-])c4)c(=O)n23)cc1,> 100 µM,> 100 µM,> 100 µM,> 100 µM,> 100 µM,> 100 µM,> 100 µM,> 100 µM,–
O=C(Nc1ccn(C2CC(I)C(COC(c3ccccc3)(c3ccccc3)c3ccccc3)O2)c(=O)n1)c1ccccc1 (stereo unspecified),–,–,–,–,–,–,–,–,TGI (MDA-N): 14.6 µM
O=C(Nc1ccccc1)n1cc(-c2ccccn2)c(N2CCOCC2)n1,> 100 µM,> 100 µM,> 100 µM,> 100 µM,8.69 µM,> 100 µM,> 100 µM,–,–
Cc1ccc(C(=O)C(c2nc3n(c2O)C(=N)N=N3)c2nc3n(c2O)C(=N)N=N3)cc1 (stereo unspecified),> 100 µM,> 100 µM,> 100 µM,> 100 µM,> 100 µM,> 100 µM,–,–,–
COC(=O)C(=O)C(C#N)c1cccc(Cl)c1 (stereo unspecified),> 100 µM,> 100 µM,–,> 100 µM,> 100 µM,> 100 µM,> 100 µM,–,–
COc1cccc(N2C(=O)/C(=C/c3ccc(N(CCC#N)CCC#N)cc3)N=C2c2cc([N+](=O)[O-])ccc2Cl)c1,> 100 µM,> 100 µM,> 100 µM,–,> 100 µM,–,> 100 µM,> 100 µM,–
O=CC1CCC=CC1NC(=O)OCc1ccccc1 (stereo unspecified),> 100 µM,> 100 µM,53.6 µM,> 100 µM,–,> 100 µM,> 100 µM,–,–
O=C(CCC(=O)Nc1ccc(Cl)cc1)CC(=O)c1ccc2ccccc2c1,> 100 µM,> 100 µM,> 100 µM,> 100 µM,> 100 µM,–,> 100 µM,> 100 µM,–
O=c1c2ccccc2nc2n1CCc1c-2[nH]c2cc3c(cc12)OCO3,–,–,–,–,–,–,–,–,TGI (MDA-N): > 25 µM
CCOC(=O)NC(=O)c1cn(CCCCCCCCCCC(=O)NCCCN2CCN(CCCNC(=O)CCCCCCCCCCn3cc(C(=O)NC(=O)OCC)c(=O)[nH]c3=O)CC2)c(=O)[nH]c1=O,> 100 µM,> 100 µM,> 100 µM,> 100 µM,> 100 µM,> 100 µM,> 100 µM,–,–
C=C1C[C@@H](O)[C@@H](Br)C(C)(C)[C@]12CCC(C)(Br)C(Cl)C2 (stereo partly specified),–,–,–,–,–,–,–,–,GI50 (MDA-N): 17.7 µM; TGI (MDA-N): > 50 µM and 36.2 µM
CC(=O)NC(CS)C(=O)O (stereo unspecified),–,–,–,–,–,–,–,–,TGI (MDA-N): > 100 µM
Cc1cc2nc3c(=O)[nH]c(=O)nc-3n(CC(O)C(O)C(O)CO)c2cc1N (stereo unspecified),> 100 µM,> 100 µM,> 100 µM,> 100 µM,–,–,> 100 µM,> 100 µM,–

SMILES,TGI (SNB-78 CNS),TGI (LXFL 529 NSCLC),TGI (DMS 114 small cell lung),TGI (M19-MEL melanoma),TGI (KM20L2 colon),TGI (XF 498 CNS),TGI (HOP-18 NSCLC),TGI (RXF-631 renal),further results
COc1ccc(Cc2cc(OC)c(OC)c(OC)c2)cc1,> 100 µM,> 100 µM,–,> 100 µM,–,–,–,–,–
Cc1ccc2nc(Sc3c([N+](=O)[O-])ncn3C)[nH]c2c1,76.3 µM,–,28.9 µM,57.2 µM,> 100 µM,18.9 µM,> 100 µM,32.3 µM,–
CC12CC/C(=N/NC(N)=O)C3C1CCCC32,–,> 100 µM,> 100 µM,> 100 µM,> 100 µM,–,> 100 µM,> 100 µM,–
CC12CCCC(C#N)(C1)OC2=O (stereo unspecified),> 100 µM,> 100 µM,–,> 100 µM,> 100 µM,> 100 µM,–,> 100 µM,–
CCc1cccc(C)c1N1C(=O)C(=O)C(c2nc3ccccc3o2)/C(=N/NC(=S)NN)C1=O (stereo unspecified),> 100 µM,> 100 µM,> 100 µM,> 100 µM,> 100 µM,> 100 µM,–,> 100 µM,–
CC1NC(C(=O)O)Cc2cc(O)c(O)cc21 (stereo unspecified),–,–,–,–,–,–,–,–,TGI (MDA-N): > 100 µM
O=C1C(Cl)=C(Cl)C(=O)N1c1ccccc1Cl,> 100 µM,> 86.3 µM,> 100 µM,> 100 µM,> 100 µM,> 100 µM,> 100 µM,–,–
O=C(O)CCC(=O)Oc1ccc(O)c2c1CCCC2=O,> 100 µM,> 100 µM,> 100 µM,> 100 µM,> 100 µM,5.84 µM,> 100 µM,–,–
CCC[CH2][Sn]1([CH2]CCC)[O]C(=O)CN=C(C)c2ccccc2[O]1,1.7 µM,1.28 µM,0.655 µM,1.8 µM,2.97 µM,3.19 µM,2.85 µM,–,GI50 (SNB-78 CNS): 0.312 µM; GI50 (LXFL 529 NSCLC): 0.254 µM; GI50 (DMS 114 small cell lung): 0.227 µM; GI50 (M19-MEL melanoma): 0.528 µM; GI50 (KM20L2 colon): 1.55 µM; GI50 (XF 498 CNS): 1.74 µM; GI50 (HOP-18 NSCLC): 1.5 µM
CN1C(c2ccccc2)CC(C)(O)CC1c1ccccc1 (stereo unspecified),> 100 µM,> 100 µM,> 100 µM,> 100 µM,> 100 µM,–,–,> 100 µM,–
NC(CP(=O)(O)O)C(=O)O (stereo unspecified),–,–,–,–,–,–,–,–,TGI (MDA-N): > 100 µM
O=C(CC(=O)N1N=C(n2ccc3ccccc32)CC1c1ccccc1)Nc1ccc(Cl)cc1 (stereo unspecified),> 100 µM,> 100 µM,> 100 µM,> 100 µM,> 100 µM,–,> 100 µM,> 100 µM,–
CCOC(=O)C1=C(C)NC(C)=C(C(=O)OCCNC(=O)c2ccc(N=[N+]=[N-])cc2)C1c1ccccc1C(F)(F)F (stereo unspecified),–,–,–,–,–,–,–,–,TGI (MDA-N): 21.5 µM
N#CC(C(=O)/C(=N/NC(=O)c1ccccc1O)C(C#N)c1ccc(Br)cc1)c1ccc(Br)cc1 (stereo unspecified),25.5 µM,13.4 µM,33 µM,25.2 µM,29.2 µM,26.6 µM,20.5 µM,28.5 µM,–
COC(=O)C(=NNc1ccccc1[N+](=O)[O-])C(=O)OC,–,> 100 µM,–,> 100 µM,> 100 µM,> 100 µM,> 100 µM,–,–
O=C[C@]12CC=C3OC4OC5(CCCCC5)OC4[C@H]3[C@H]1C(=O)C=CC2=O (stereo partly specified),29.4 µM,39.8 µM,50.8 µM,54.5 µM,–,27.8 µM,–,> 100 µM,–
N.N.N.N.N.N#Cc1nn[n-]n1.[Cl-].[Co+3],> 100 µM,> 100 µM,–,–,> 100 µM,–,> 100 µM,–,GI50 (SNB-78 CNS): > 100 µM; GI50 (LXFL 529 NSCLC): > 100 µM; GI50 (KM20L2 colon): > 100 µM; GI50 (HOP-18 NSCLC): > 100 µM
C=C[C@H]1CN2CCc3c([nH]c4c([C@@H]5CCCN5C)c(O)ccc34)[C@@H]2C[C@@H]1C[C@H]1c2[nH]c3ccccc3c2CCN1C,–,–,–,–,–,–,–,–,GI50 (MDA-N): 1.5 µM; TGI (MDA-N): 3.06 µM and 3.3 µM
CCC(C)C(=O)O[C@H]1C(=O)O[C@@H]2C[C@H]3C(C)=CC(=O)[C@@H](O)[C@]3(C)[C@H]3[C@@H](O)[C@H](O)[C@@]4(C)OC[C@]32[C@@H]14 (stereo partly specified),0.394 µM,0.123 µM,0.0431 µM,0.0909 µM,0.31 µM,0.0819 µM,0.596 µM,–,TGI (MDA-N): 0.0543 µM
N#CCCN(C1=NN(C(=O)CC(=O)Nc2ccc(Cl)cc2)C(c2ccccc2)C1)c1ccc(Cl)cc1 (stereo unspecified),> 100 µM,> 100 µM,> 100 µM,> 100 µM,> 100 µM,> 100 µM,> 100 µM,> 100 µM,–
